From ChEMBL document CHEMBL1154316, “Structure-activity relationship study of EphB3 receptor tyrosine kinase inhibitors” (Bioorg Med Chem Lett, 2009) come the findings set out here.

Molecules are shown by their SMILES.

The nature of data set [1]: Half life in mouse liver microsomes at 3 uM measured up to 60 mins. The data set is classed as ADME, Microsome. Conditions: for half-life at 3 µM: liver microsomes.
Data set [2] can be described thus: Intrinsic clearance in mouse liver microsomes assessed as per mg of protein at 3 uM measured up to 60 mins. The data set is classed as ADME, Microsome. As to conditions: for microsomal CLint at 3 µM: liver microsomes. A general note: Microsomes from liver hold many membrane-bound enzymes, among them those of drug oxidation.

What is called half-life is the time needed for the level to fall by half in the phase considered. A lower half-life goes with rapid decline. `O=C(Nc1ccccc1Cl)c1cnc2ccc(C3CCNCC3)cn12.O=C(O)C(=O)O` yielded a half-life at 3 µM in data set [1] of 348 min.
Usually microsomal CLint stands for the capacity of the preparation to metabolise the compound, expressed as a volume cleared per time. In data set [1], `O=C(Nc1ccccc1Cl)c1cnn2ccc(-c3ccccc3)cc12` returned a half-life at 3 µM of 27 min. In addition, the intrinsic clearance (microsomal CLint) at 3 µM in data set [2] is 51 µL/min/mg.
The corresponding values for `O=C(Nc1ccccc1Cl)c1cnn2ccc(N3CCCCC3)cc12` are 8.3 min and 167 µL/min/mg.
The corresponding values for `O=C(Nc1ccccc1Cl)c1cnc2ccccn12` are 3.8 min and 361 µL/min/mg.
For the compound `O=C(Nc1ccccc1Cl)c1cnc2ccc(-c3ccccc3)cn12`, in data set [1], the half-life at 3 µM turned out to be 53 min. In data set [2], the microsomal CLint at 3 µM was 26 µL/min/mg.
`O=C(Nc1ccccc1Cl)c1cnn2ccccc12`: the t1/2 in data set [1] (microsomes, 1 h, 3 µM) was found to be 5.3 min. Moreover, in data set [2] (microsomes, 1 h, 3 µM), the CL was 261 µL/min/mg.
In data set [1], `O=C(Nc1ccccc1Cl)c1cnc2ccc(N3CCCCC3)cn12` had a half-life at 3 µM of 20 min. Besides, the microsomal CLint at 3 µM in data set [2] stood at 71 µL/min/mg.
